Read-outs that look alike come from different tables or passages of the source. *1 amine or outer side, *2 acyl side, *3 side chain or, on linkers, in order; H or OH if unused. Where a SMILES comes first, the peptide text is derived from it. Side-chain parts run from the residue outwards. [ ]: non-standard residue; d: D form. The star is where a group is joined. Isobutyryl(2-(3-CN-5-F-Ph)) = CC(C)(C(=O)*)c1cc(F)cc(C#N)c1; C20 diacid = O=C(O)CCCCCCCCCCCCCCCCCCC(=O)*; γGlu = O=C(O)[C@H](CCC(=O)[*:2])N[*:1]; X48 = CC(C)[C@H](C(=O)*)c1ccc(Cl)cc1; X39 = CCC(CC)(C(=O)*)c1ccc(Cl)cc1; NH(4-Me-phenyl) = Cc1ccc(N*)cc1; AEEA = NCCOCCOCC(=O)O; Aib = CC(C)(N)C(=O)O; CO = O=C([*:1])[*:2]; GABA = NCCCC(=O)O; βAla = NCCC(=O)O
Experiments:
Format in all cases: cell-based
GIP receptor [1] = target: T1, GIP receptor (Homo sapiens, UniProt P48546); assay: HitHunter cAMP assay, GIP receptor; settings: for Emax: read-out: Emax GIP-1R
T1 sequence (P48546 22-466): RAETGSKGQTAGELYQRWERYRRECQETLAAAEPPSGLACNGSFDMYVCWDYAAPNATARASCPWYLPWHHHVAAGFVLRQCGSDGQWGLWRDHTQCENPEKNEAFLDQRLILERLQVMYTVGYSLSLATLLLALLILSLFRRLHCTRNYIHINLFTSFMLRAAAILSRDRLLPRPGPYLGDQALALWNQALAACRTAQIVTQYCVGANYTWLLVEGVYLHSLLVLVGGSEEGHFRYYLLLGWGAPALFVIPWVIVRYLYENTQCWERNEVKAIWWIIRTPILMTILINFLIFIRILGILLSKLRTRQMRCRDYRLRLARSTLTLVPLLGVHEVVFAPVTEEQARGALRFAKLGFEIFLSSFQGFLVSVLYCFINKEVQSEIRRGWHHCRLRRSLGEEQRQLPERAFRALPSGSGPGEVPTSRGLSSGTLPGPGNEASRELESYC

GIP receptor [2] = target: T1, GIP receptor; assay: PathHunter β-arrestin assay, GIP receptor; parameters: host or cells: PathHunter CHO-K1 GIPR β-Arrestin Cell Line
GLP-1 receptor [3] = target: T2, GLP-1 receptor (Homo sapiens, UniProt P43220); assay: HitHunter cAMP assay, GLP-1 receptor; settings: for Emax: read-out: Emax GLP-1R
GLP-1 receptor [4] = target: T2, GLP-1 receptor; assay: PathHunter β-arrestin assay, GLP-1 receptor; parameters: host or cells: PathHunter CHO-K1 GLP1R β-Arrestin Cell Line
[5] = CHO cells stably expressing GIP receptor, cAMP accumulation, 30 min, read-out: EC50 GIP-1R
[6] = CHO cells, cAMP, normalized to maximum signal from GIP (high) and DMSO (low)
[7] = β-arrestin-2 recruitment, PathHunter CHO-K1 GIPR β-Arrestin Cell Line, 90 min at 37° C., normalized to GIP, read-out: GIPR β Arrestin EC50
[8] = CHO cells stably expressing human GLP-1 receptor, cAMP accumulation, 30 min, read-out: EC50 GLP-1R
[9] = CHO cells, cAMP, normalized to maximum signal from GLP-1 (high) and DMSO (low)
[10] = β-arrestin-2 recruitment, PathHunter CHO-K1 GLP1R β-Arrestin Cell Line, 90 min at 37° C., normalized to GLP-1, read-out: GLP-1R β Arrestin EC50

T2 sequence (P43220 24-463): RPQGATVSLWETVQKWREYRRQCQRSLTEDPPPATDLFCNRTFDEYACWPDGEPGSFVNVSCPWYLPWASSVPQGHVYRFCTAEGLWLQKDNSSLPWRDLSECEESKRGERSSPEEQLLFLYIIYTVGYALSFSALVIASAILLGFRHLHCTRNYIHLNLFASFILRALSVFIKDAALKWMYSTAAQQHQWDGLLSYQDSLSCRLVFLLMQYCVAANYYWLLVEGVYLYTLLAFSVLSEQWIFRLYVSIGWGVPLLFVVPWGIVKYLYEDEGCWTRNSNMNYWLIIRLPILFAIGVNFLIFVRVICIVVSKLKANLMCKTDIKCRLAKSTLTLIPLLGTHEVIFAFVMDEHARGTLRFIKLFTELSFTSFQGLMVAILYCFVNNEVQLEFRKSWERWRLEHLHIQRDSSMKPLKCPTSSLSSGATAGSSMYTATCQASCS

SMILES | EC50 (GIP receptor [1]) | Emax (GIP receptor [1]; CHO) | EC50 (GIP receptor [2]) | EC50 (GLP-1 receptor [3]) | Emax (GLP-1 receptor [3]; CHO) | EC50 (GLP-1 receptor [4]) | EC50 (GIP receptor [1]; [5]) | Emax (GIP receptor [1]; [6]) | EC50 (GIP receptor [2]; [7]) | EC50 (GLP-1 receptor [3]; [8]) | Emax (GLP-1 receptor [3]; [9]) | EC50 (GLP-1 receptor [4]; [10])
CC[C@H](C)[C@H](NC(=O)[C@H](CC(C)C)NC(=O)[C@H](Cc1c[nH]c2ccccc12)NC(=O)[C@H](CCC(N)=O)NC(=O)[C@@H](NC(=O)[C@H](Cc1ccccc1)NC(=O)[C@H](C)NC(=O)[C@H](CCCCNC(=O)COCCOCCNC(=O)COCCOCCNC(=O)CC[C@H](NC(=O)CCCCCCCCCCCCCCCCCCC(=O)O)C(=O)O)NC(=O)[C@H](CCC(N)=O)NC(=O)[C@H](C)NC(=O)[C@@H](NC(=O)[C@H](CCCCN)NC(=O)[C@H](CC(=O)O)NC(=O)[C@H](CC(C)C)NC(=O)C(C)(C)NC(=O)[C@@H](NC(=O)[C@H](CO)NC(=O)[C@H](Cc1ccc(O)cc1)NC(=O)[C@H](CC(=O)O)NC(=O)[C@H](CO)NC(=O)[C@@H](NC(=O)[C@H](Cc1ccccc1)NC(=O)[C@@H](NC(=O)CNC(=O)[C@H](CCC(=O)O)NC(=O)CCCNC(=O)CNC(=O)Nc1ccc(C)cc1)[C@@H](C)O)[C@@H](C)O)[C@@H](C)CC)[C@@H](C)CC)C(C)C)C(=O)N[C@@H](C)C(=O)NCC(=O)NCC(=O)N1CCC[C@H]1C(=O)N[C@@H](CO)C(=O)N[C@@H](CO)C(=O)NCC(=O)N[C@@H](C)C(=O)N1CCC[C@H]1C(=O)N1CCC[C@H]1C(=O)N1CCC[C@H]1C(=O)N[C@@H](CO)C(N)=O [Compound 271] ({NH(4-Me-phenyl)-CO}-G[GABA]EGTFTSDYSI[Aib]LDKIAQK([AEEA-AEEA-γGlu-C20 diacid])AFVQWLIAGGPSSGAPPPS-NH2) | 1 to 10 nM | 105% | < 1000 nM | 1 to 10 nM | 94% | > 1000 nM | – | – | – | – | – | –
CC[C@H](C)[C@H](NC(=O)[C@H](CC(C)C)NC(=O)[C@H](Cc1c[nH]c2ccccc12)NC(=O)[C@H](CCC(N)=O)NC(=O)[C@@H](NC(=O)[C@H](Cc1ccccc1)NC(=O)[C@H](C)NC(=O)[C@H](CCCCNC(=O)COCCOCCNC(=O)COCCOCCNC(=O)CC[C@H](NC(=O)CCCCCCCCCCCCCCCCCCC(=O)O)C(=O)O)NC(=O)[C@H](CCC(N)=O)NC(=O)[C@H](C)NC(=O)[C@@H](NC(=O)[C@H](CCCCN)NC(=O)[C@H](CC(=O)O)NC(=O)[C@H](CC(C)C)NC(=O)C(C)(C)NC(=O)[C@@H](NC(=O)[C@H](CO)NC(=O)[C@H](Cc1ccc(O)cc1)NC(=O)[C@H](CC(=O)O)NC(=O)[C@H](CO)NC(=O)[C@@H](NC(=O)[C@H](Cc1ccccc1)NC(=O)[C@@H](NC(=O)CNC(=O)[C@H](CCC(=O)O)NC(=O)CCNC(=O)C(CC)(CC)c1ccc(Cl)cc1)[C@@H](C)O)[C@@H](C)O)[C@@H](C)CC)[C@@H](C)CC)C(C)C)C(=O)N[C@@H](C)C(=O)NCC(=O)NCC(=O)N1CCC[C@H]1C(=O)N[C@@H](CO)C(=O)N[C@@H](CO)C(=O)NCC(=O)N[C@@H](C)C(=O)N1CCC[C@H]1C(=O)N1CCC[C@H]1C(=O)N1CCC[C@H]1C(=O)N[C@@H](CO)C(N)=O [Compound 176] ({X39-βAla}-EGTFTSDYSI[Aib]LDKIAQK([AEEA-AEEA-γGlu-C20 diacid])AFVQWLIAGGPSSGAPPPS-NH2) | – | – | – | – | – | – | 1 to 10 nM | 110% | < 1000 nM | 1 to 10 nM | 110% | > 1000 nM
CC[C@H](C)[C@H](NC(=O)[C@H](CO)NC(=O)[C@H](CCCCNC(=O)COCCOCCNC(=O)COCCOCCNC(=O)CC[C@H](NC(=O)CCCCCCCCCCCCCCCCCCC(=O)O)C(=O)O)NC(=O)[C@H](CC(=O)O)NC(=O)[C@H](CO)NC(=O)[C@@H](NC(=O)[C@H](Cc1ccccc1)NC(=O)[C@@H](NC(=O)CNC(=O)[C@H](CCC(=O)O)NC(=O)CCNC(=O)C(C)(C)c1cccc(C#N)c1)[C@@H](C)O)[C@@H](C)O)C(=O)N[C@@H](Cc1ccc(O)cc1)C(=O)N[C@@H](CC(C)C)C(=O)N[C@@H](CC(=O)O)C(=O)N[C@@H](CCCCN)C(=O)N[C@@H](CCC(N)=O)C(=O)N[C@@H](C)C(=O)N[C@@H](C)C(=O)NC(C)(C)C(=O)N[C@@H](CCC(=O)O)C(=O)N[C@@H](Cc1ccccc1)C(=O)N[C@H](C(=O)N[C@@H](CC(N)=O)C(=O)N[C@@H](Cc1c[nH]c2ccccc12)C(=O)N[C@@H](CC(C)C)C(=O)N[C@@H](CC(C)C)C(=O)N[C@@H](C)C(=O)NCC(=O)NCC(=O)N1CCC[C@H]1C(=O)N[C@@H](CO)C(=O)N[C@@H](CO)C(=O)NCC(=O)N[C@@H](C)C(=O)N1CCC[C@H]1C(=O)N1CCC[C@H]1C(=O)N1CCC[C@H]1C(=O)N[C@@H](CO)C(N)=O)C(C)C [Compound 143] | 10 to 100 nM | – | > 1000 nM | < 0.1 nM | – | < 1000 nM | – | 100% | – | – | 101% | –
CC[C@H](C)[C@H](NC(=O)[C@H](CC(C)C)NC(=O)[C@H](Cc1c[nH]c2ccccc12)NC(=O)[C@H](CCC(N)=O)NC(=O)[C@@H](NC(=O)[C@H](Cc1ccccc1)NC(=O)[C@H](C)NC(=O)[C@H](CCCCNC(=O)COCCOCCNC(=O)COCCOCCNC(=O)CC[C@H](NC(=O)CCCCCCCCCCCCCCCCCCC(=O)O)C(=O)O)NC(=O)[C@H](CCC(N)=O)NC(=O)[C@H](C)NC(=O)[C@H](CCC(N)=O)NC(=O)[C@H](CCCCN)NC(=O)[C@H](CC(=O)O)NC(=O)[C@H](CC(C)C)NC(=O)C(C)(C)NC(=O)[C@@H](NC(=O)[C@H](CO)NC(=O)[C@H](Cc1ccc(O)cc1)NC(=O)[C@H](CC(=O)O)NC(=O)[C@H](CO)NC(=O)[C@@H](NC(=O)[C@H](Cc1ccccc1)NC(=O)[C@@H](NC(=O)CNC(=O)[C@H](CCC(=O)O)NC(=O)CCNC(=O)C(C)(C)c1cc(F)cc(C#N)c1)[C@@H](C)O)[C@@H](C)O)[C@@H](C)CC)C(C)C)C(=O)N[C@@H](C)C(=O)NCC(=O)NCC(=O)N1CCC[C@H]1C(=O)N[C@@H](CO)C(=O)N[C@@H](CO)C(=O)NCC(=O)N[C@@H](C)C(=O)N1CCC[C@H]1C(=O)N1CCC[C@H]1C(=O)N1CCC[C@H]1C(=O)N[C@@H](CO)C(N)=O [Compound 186] ({Isobutyryl(2-(3-CN-5-F-Ph))-βAla}-EGTFTSDYSI[Aib]LDKQAQK([AEEA-AEEA-γGlu-C20 diacid])AFVQWLIAGGPSSGAPPPS-NH2) | – | – | – | – | – | – | 10 to 100 nM | 100% | > 1000 nM | 0.1 to 1 nM | 99% | > 1000 nM
CC[C@H](C)[C@H](NC(=O)[C@H](CC(C)C)NC(=O)[C@H](Cc1c[nH]c2ccccc12)NC(=O)[C@H](CCC(N)=O)NC(=O)[C@@H](NC(=O)[C@H](Cc1ccccc1)NC(=O)[C@H](C)NC(=O)[C@H](CCCCNC(=O)COCCOCCNC(=O)COCCOCCNC(=O)CC[C@H](NC(=O)CCCCCCCCCCCCCCCCCCC(=O)O)C(=O)O)NC(=O)[C@H](CCC(N)=O)NC(=O)[C@H](C)NC(=O)[C@@H](NC(=O)[C@H](CCCCN)NC(=O)[C@H](CC(=O)O)NC(=O)[C@H](CC(C)C)NC(=O)C(C)(C)NC(=O)[C@@H](NC(=O)[C@H](CO)NC(=O)[C@H](Cc1ccc(O)cc1)NC(=O)[C@H](CC(=O)O)NC(=O)[C@H](CO)NC(=O)[C@@H](NC(=O)[C@H](Cc1ccccc1)NC(=O)[C@@H](NC(=O)CNC(=O)[C@H](CCC(=O)O)NC(=O)CCNC(=O)[C@H](c1ccc(Cl)cc1)C(C)C)[C@@H](C)O)[C@@H](C)O)[C@@H](C)CC)[C@@H](C)CC)C(C)C)C(=O)N[C@@H](C)C(=O)NCC(=O)NCC(=O)N1CCC[C@H]1C(=O)N[C@@H](CO)C(=O)N[C@@H](CO)C(=O)NCC(=O)N[C@@H](C)C(=O)N1CCC[C@H]1C(=O)N1CCC[C@H]1C(=O)N1CCC[C@H]1C(=O)N[C@@H](CO)C(N)=O [Compound 177] ({X48-βAla}-EGTFTSDYSI[Aib]LDKIAQK([AEEA-AEEA-γGlu-C20 diacid])AFVQWLIAGGPSSGAPPPS-NH2) | 10 to 100 nM | 94% | > 1000 nM | 1 to 10 nM | 95% | > 1000 nM | – | – | – | – | – | –

From US12281149B2, “Modulators of G-protein coupled receptors” (priority 2021, dated 2025)
